Measurements taken from patent US9101569B2, “Methods for the treatment of insulin resistance” (UNIVERSITE DE GENEVE, priority 2010, dated 2015).

What was measured:
[1] = tested on: HFD-induced obese rats; assay: High-fat diet-induced obesity rat model, subcutaneous infusion: body weight gain, food intake, body composition; format: in vivo
Description: Another group of the above male Wistar rats were rendered obese as described above and were subcutaneously infused with saline or OT (NeoMPS®, Strasbourg, France) (50 nmol/day/rat) during 14 days.
(§1) The beneficial metabolic effects of OT administration were assayed in the same high-fat diet induced obesity model in rats as in Example 1 and in PPAR-alpha knockout mice (Lee et al., 1995, Mol. Cell. Biol., 15(6):3012-22). HFD-induced obese animals, saline or OT groups (see conditions under Example 1) were subcutaneously infused via minipumps (Alzet®, as above). OT was delivered at a dose of 50 nmol/day/rat during 14 days.
An EchoMRI-700 quantitative nuclear magnetic resonance (QMR) analyzer (Echo Medical Systems, Houston, Tex.) was used to measure total fat mass and lean body mass in rats at the beginning and the end of the treatment.
The beneficial metabolic effects of administration of an oxytocin derivative according to the invention (Carbetocin) were assessed in the same rat model of high-fat diet induced obesity as in Example 1. HFD-induced obese animals were subcutaneously infused via minipumps (Alzet®, as above) with saline or carbetocin (Bachem) (5 nmol/day/rat or 50 nmol/day/rat) during 14 days.
Body composition parameters were measured by quantitative nuclear magnetic resonance as described in Example 3 at the beginning and 10 days of treatment.

[2] = tested on: enzymes involved in lipid metabolism; assay: Tissue expression of lipid metabolism enzymes (real-time RT-PCR) after i.c.v. OT infusion; format: in vivo, rat; conditions: central OT infusion
[3] = tested on: wild-type mice; assay: Peripheral OT infusion in wild-type littermate mice; format: in vivo; conditions: peripheral 50 nmol/day over 3 days
Description: as §1
OT was peripherally administered with 50 nmol/day over 3 days in PPAR-alpha knockout (KO) mice and their wild-type littermates. […] Consistently, OT peripheral infusion promoted an increase in the mRNA expression of PPAR-alpha target genes (Acadm, Acox1, Ehhadh, Ucp3) in wild-type mice, while it had no effect in PPAR-alpha knockouts.

[4] = tested on: HFD-induced obese rats; assay: HOMA-IR and euglycemic-hyperinsulinemic clamps after subcutaneous OT infusion; format: in vivo, rat; conditions: s.c. 50 nmol/day, 14 days
Description: Global and tissue-specific glucose utilization rates were measured by performing euglycemic-hyperinsulinemic clamps associated with the labeled 2-deoxyglucose technique as previously described (Vettor et al., 1994, Diabetologia, 37, 1202-1208). HFD-induced obese rats were overnight fasted and intraperitoneally anesthetized with Nembutal (75 mg/kg sodium pentobarbital; Abbott Laboratories, Chicago, Ill.). Total glucose utilization was measured during euglycemic-hyperinsulinemic clamps, as previously described (Vettor et al., 1994, above). At the end of the clamp, the in vivo insulin-stimulated glucose utilization index of individual tissues was determined by injecting a single bolus of labeled 2-deoxy-D-[1-3H]glucose (30 μCi; Amersham Biosciences UK, Little Chalfont, UK), as previously described (Vettor et al., 1994, above). […]
The beneficial effects of OT administration were assessed in the same rat model of high-fat diet induced obesity as in Example 1. […]
Insulinemia and glycemia were measured after an overnight fast before the euglycemic hyperinsulinemic clamps) and were used to calculate the “homeostasis model assessment of insulin resistance” (HOMA-IR). HOMA-IR was calculated as follows: (fasting serum insulin in mU/l)×(fasting blood glucose in mM)/22.5.
The effect of peripheral OT administration on high fat diet-induced insulin resistance was determined as described in Example 1.

[5] = tested on: HFD-induced obese rats; assay: High-fat diet-induced obesity rat model, i.c.v. OT infusion: body weight gain and food intake; format: in vivo; conditions: 14 days, compared with saline
Description: The beneficial metabolic effects of OT administration were assayed in the following high-fat diet-induced obesity model in rats.
Male Wistar (300-325 g) rats were purchased from Charles River (L′Arbresle, France) and housed in individual cages under conditions of controlled temperature (22° C.) and illumination (light on: 07:00-19:00 h). They were allowed free access to water and a 45% high fat diet (HFD) (metabolized energy, 4.56 kcal/g) (Ssniff® EF R/M acc. D12451 (I) mod., ssniff Spezialdiaten GmbH, Soest, Germany) for seven weeks. Body weight, food intake and water intake were recorded daily (08:30-09:30 h). All procedures were approved by the Ethic Committee of our University and were in accordance with the Swiss guidelines for animal experimentation.
To study the role of OT on metabolic homeostasis, the above male Wistar rats were rendered obese by 7 weeks of HFD 45% and were intracerebroventricularly (i.c.v.) infused with either OT (1.6 nmol/d) or saline during the last 2 weeks of the experiment.
After three weeks of HFD feeding, rats were submitted to surgical procedures. They were anesthetized with intramuscular injection of ketamine-xylasine (Ketalar®-Rompun®, Parke-Davis and Bayer, Leverkusen, Switzerland) at 40 and 9 mg/kg, respectively, and implanted with a cannula in the right lateral cerebral ventricle fixed on the skull with dental cement, as previously described (Rohner-Jeanrenaud et al., 1989, Endocrinology 124, 733-9). After one week of recovery, the drinking response to i.c.v. injection of Angiotensin II (5 ng/μl) (Novabiochem, Laüfelfingen, Switzerland) was measured to confirm the correct placement of the cannula. At the end of the fifth week of high fat diet feeding, osmotic minipumps (Alzet®, model 2001, Alza Corporation, Cupertino, Calif.) delivering oxytocin (NeoMPS®, Strasbourg, France) or its vehicle (NaCl 0.9%) were subcutaneously implanted and connected to the i.c.v. cannula via a polyethylene catheter, as previously described (Rohner-Jeanrenaud et al., 1989, above). OT was delivered at a dose of 1.6 nmol/day/rat or 16 nmol/day/rat during 14 days. A group of vehicle-infused rats was pair-fed to the amount of food consumed by OT-infused animals in order to assess the effects of OT independently from changes in food intake. The pair-feeding regimen consisted in giving one-third of the daily food amount in the morning and the remaining two-thirds just before onset of darkness. Rats were sacrificed using isoflurane anesthesia (Halocarbon Laboratories, River Edge, N.J.) and rapid decapitation between 09:00 and 13:00 h. Blood samples were collected into EDTA-coated tubes, centrifuged and plasma stored at −20° C. Tissues were rapidly removed, freeze-clamped, and stored at −80° C.

`CC[C@H](C)[C@@H]1NC(=O)[C@H](Cc2ccc(O)cc2)NC(=O)[C@@H](N)CSSC[C@@H](C(=O)N2CCC[C@H]2C(=O)N[C@@H](CC(C)C)C(=O)NCC(N)=O)NC(=O)[C@H](CC(N)=O)NC(=O)[C@H](CCC(N)=O)NC1=O` [OT, Cys-Tyr-Ile-Gln-Asn-Cys-Pro-Leu-Gly (SEQ ID NO: 1)] was tested. Which food intake ([1]; s.c. 50 nmol/day, 14 days) did it give?
Its food intake is “decreased”.

And the body weight gain ([1]; s.c. 50 nmol/day, 14 days, not observed in pair-fed group)?
The body weight gain was “decreased”.

And the “fat mass by weighing adipose tissue depots” value ([1]; s.c. OT 50 nmol/day)?
The value was “food intake-independent decrease”.

What about the “HSL at the protein level” value [2] of the same molecule?
Its value is “stimulatory effect”.

And the “expression of genes involved in fatty acid β-oxidation” value ([2]; liver)?
Its value is “did not modify”.

What about the body weight gain [3] of the same molecule?
The body weight gain was “significant decrease”.

What about the “mRNA expression of PPAR-alpha target genes (Acadm, Acox1, Ehhadh, Ucp3)” value [3] of the same molecule?
The value was “increase”.

What about the “glucose infusion rate (GIR)” value [4] of the same molecule?
The value was “significantly increased”.

What about the HOMA-IR ([4]; compared to saline, not observed in pair-fed group) of the same molecule?
The HOMA-IR was “lower”.

And the “cumulative body weight gain” value ([5]; i.c.v. 1.6 nmol/d)?
Its value is “more than fifty percent decrease”.

What about the cumulative food intake ([5]; i.c.v. 1.6 nmol/d) of the same molecule?
Its cumulative food intake is “without any effect”.

And the “food efficiency (ratio of body weight gain to cumulative food intake)” value ([5]; i.c.v. 1.6 nmol/d)?
Its value is “marked decrease”.

What about the cumulative food intake ([5]; i.c.v. 16 nmol/d) of the same molecule?
Its cumulative food intake is “decreased”.

And the body weight gain ([5]; i.c.v. 16 nmol/d, not observed in pair-fed group)?
The body weight gain was “significantly lower”.
